In patent EP0405436B1, “Dihetero nitrogen-containing cycloheteroethanoanthracene derivatives as antipsychotic agents” (G.D. Searle & Co., priority 1989, dated 1991) one finds ED50 and Ki data, which are given here for six compounds.

Assay [1] has as its system apomorphine-induced climbing. Nature of the assay: Blockade of apomorphine-induced climbing. In kind it is in vivo, Swiss-Webster mice. The settings on record: Mus musculus; mice, i.p. or s.c. pretreatment; 2 mg/kg apomorphine s.c.; rated at 10 and 20 minutes; read-out: Blockade of Apomorphine-induced Climbing ED₅₀. The protocol: Compounds of the invention were evaluated for their ability to block apomorphine-induced climbing. The evaluation of the compounds followed the method outlined by Protais [Psychopharmacol., 50, 1-6, 1976]. Swiss-Webster mice, weighing 20-25 g, are pretreated with the compounds of the invention by i.p. or s.c. administration at various times before 2 mg/kg apomorphine is administered s.c in a volume of 1 ml/kg. All test compounds are administered in a volume of 10 ml/kg. Mice are rated at 10 and 20 minutes after apomorphine administration using the following rating scale: (0) forepaws on the floor, (1) forefeet holding the bars, and (2) four paws holding bars. Dose-response curves are analyzed by a computerized Finney assay [Statistical Methods in Biological Assays, 2nd Edn., Hatner Pub. Co., New York (1964)].

The next assay deals with sigma receptor (Rattus norvegicus, UniProt Q9R0C9). Format: binding, male Sprague-Dawley rats. The protocol:
To determine the effects of the compounds in a sigma receptor assay, crude membrane preparations were prepared as follows. Brains from male Sprague-Dawley rats were homogenized in 10 volumes (wt/vol) of 0.32 M sucrose, using a Polytron grinder. The homogenate was centrifuged at 900 X G for 10 minutes at 4°C. The supernatant was collected and centrifuged at 22,000 X g for 20 minutes at 4°C. The pellet was resuspended in 10 volumes of 50 mM Tris/HCl buffer (pH 7.4) and centrifuged at 22,000 X g for 20 minutes at 4°C. The pellet was resuspended in 5 mM Tris/HCl buffer (pH 7.4) to give a final concentration of 250 mg/ml of the crude material. Incubation tubes were prepared in triplicate and contained 0.1 ml of tissue suspension, 2 nM of [³H]-(+)-1-propyl-3-(3-hydroxyphenyl)piperidine {[³H]-3-(+)-PPP}, and varying concentrations of the displacing ligand (0.1-1000 nM) in a final volume of 0.5 ml. After a 1 hr incubation at room temperature, the contents of the test tubes were filtered through GS filter paper which had been presoaked for at least 2 hours in 0.05% polyethyleneimine. The test tubes were rinsed three times with Tris/HCl buffer. Radioactivity on the filters was determined using […] [Biochem. Pharmacol., 22, 3099-3108, 1973].

The mark [2] stands for this setting: read-out: Ki apparent (nM) (units ± SEM); rat brain membranes, 2 nM [³H]-3-(+)-PPP, 1 hr at room temperature, displacing ligand 0.1-1000 nM.

SMILES strings stand for the structures. Read-outs that look alike come from different tables or passages of the source. Some results are limits rather than exact numbers.

Sequence of sigma receptor (Q9R0C9 whole entry): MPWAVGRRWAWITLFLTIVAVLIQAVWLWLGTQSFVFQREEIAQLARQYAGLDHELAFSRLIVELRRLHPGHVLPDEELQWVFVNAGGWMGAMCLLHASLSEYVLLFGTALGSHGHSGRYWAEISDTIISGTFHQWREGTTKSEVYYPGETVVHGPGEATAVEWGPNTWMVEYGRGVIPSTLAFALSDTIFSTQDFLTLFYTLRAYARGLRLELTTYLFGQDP

Regarding `CN1CCN(CC2CC3c4ccccc4C2c2ccccc23)CC1` (stereo not drawn) [Compound No. 1, 4-[(9,10-Dihydro-9,10-ethanoanthracenyl)methyl]-1-methylpiperazine], in assay [1], the ED50 came to 1 mg/kg. For the same compound, the Ki on sigma receptor (setting [2]) was 120 ± 20 nM.
Take `c1ccc2c(c1)C1CC(CN3CCN4CCCC4C3)C2c2ccccc21` (stereo not drawn) [Compound No. 4, 4-[(9,10-dihydro-9,10-ethanoanthracenyl)methyl]-1,4-diazabicyclo[4.3.0]nonane]: the Ki on sigma receptor (setting [2]) was 20 ± 3 nM.
`OCCN1CCN(CC2CC3c4ccccc4C2c2ccccc23)CC1` (stereo not drawn) [Compound No. 2, 4-[(9,10-dihydro-9,10-ethanoanthracenyl)methyl]-1-(2-hydroxyethyl)-piperazine]: the ED50 in assay [1] worked out at 1 mg/kg. In addition, on sigma receptor (setting [2]), the Ki is 21 ± 6 nM.
On to `CN1CCN(C(=O)C2CC3c4ccccc4C2c2ccccc23)CC1` (stereo not drawn) [Compound No. 5, reference compound], for which the Ki at sigma receptor (rat brain membranes, 2 nM [³H]-3-(+)-PPP, 1 hr at room temperature, displacing ligand 0.1-1000 nM; read-out: Ki apparent (nM) (units ± SEM)) is over 1000 nM.
With `c1cnc(N2CCN(CC3CC4c5ccccc5C3c3ccccc34)CC2)nc1` (stereo not drawn) [Compound No. 3, 4-[(9,10-Dihydro-9,10-ethanoanthracenyl)methyl]-1-(2-pyrimidyl)piperazine], the Ki on sigma receptor (setting [2]) is over 1000 nM.
Regarding `c1ccc(CN2CCN(CC3CC4c5ccccc5C3c3ccccc34)CC2)cc1` (stereo not drawn) [Compound No. 6, 4-[(9,10-Dihydro-9,10-ethanoanthracenyl)methyl]-1-benzylpiperazine], the ED50 in assay [1] is 10 mg/kg. Also, the Ki at sigma receptor (setting [2]) turned out to be 98 ± 18 nM.
